Here are results for two molecules from patent US8252806B2, “Potassium channel modulating agents and their medical use” (Neurosearch A/S, priority 2005, dated 2012).

The structures appear in SMILES notation.

The target in data set [1] is T1, small-conductance Ca2+-activated K+ channel, subtype 3 (SK3) (Homo sapiens, UniProt Q9UGI6).
T1 construct: expressed in transfected cells; host or cells: HEK293 cells stably transfected with pNS3_hSK3
The experiment in a line: Whole-cell patch-clamp recording of SK3 current in HEK293 cells stably expressing hSK3. The format is cell-based. The settings on record: baseline current at -20 mV, 300 nM free Ca2+. The protocol: The ionic current through small-conductance Ca^2+-activated K^+ channels (SK channels, subtype 3) is recorded using the whole-cell configuration of the patch-clamp technique.
The small-conductance Ca^2+-activated K^+ channel, subtype 3 (SK3) was cloned from human skeletal muscle and stably expressed in HEK293 cells.
Human SK3 (hSK3) was sub-cloned into the expression vector pNS3n, a customized vector derived from pcDNA3 (InVitrogen) to give the plasmid construct pNS3_hSK3. HEK293 tissue culture cells were grown in DMEM (Dulbecco's Modified Eagle Medium) supplemented with 10% FCS (foetal calf serum) at 37° C. in 5% CO2. […]
Experiments are carried out on one of several patch-clamp set-ups. […] Data are stored directly on the hard-disk and analysed by IGOR software (Wavemetrics, Lake Oswega, Oreg., USA).
The whole-cell configuration of the patch-clamp technique is applied. […] Cell capacitance is electronically compensated and the resistance between the pipette and the cell interior (the series resistance, Rs) is measured and compensated for. […]
The intracellular (pipette) solution has the following composition (in mM): 105 KCl, 45 KOH, 10 EGTA, 1.21 MgCl2, 7.63 CaCl2, and 10 HEPES (pH=7.2 with HCl). The calculated free concentration of Ca^2+ in this solution is 300 nM and that of Mg^2+ is 1 mM. […]
Active compounds are quantified by calculating the change in baseline current at −20 mV. […]

For `Cc1cc(C)n(-c2nc(NC3CCCCC3)c3ccccc3n2)n1` [Compound A8, Cyclohexyl-[2-(3,5-dimethyl-pyrazol-1-yl)-quinazolin-4-yl]-amine], in data set [1], the “SC100 (Stimulating Concentration required for increasing the baseline current by 100%)” value came to 0.035 µM.

`Cc1cc(C)n(-c2nc(Nc3ccccc3)c3ccccc3n2)n1` [Compound B1, [2-(3,5-Dimethyl-pyrazol-1-yl)-quinazolin-4-yl]-phenyl-amine] gave a melting point of 262.4 to 265.3 °C.
